Where two headings read alike, the source gives them in different places. Bridges are numbered along the chain shown (N, C = ends). Where no end group is shown, it is not given here.
Target: T1, human C5 (Homo sapiens, UniProt P01031)
T1 construct: tissue TCS Biosciences (serum); host or cells: human serum
Assay: SPR multi-cycle kinetics, binding to C5
Settings: for fold drop in affinity of alanine mutant: relative to unmodified K8 or K92, SPR multi-cycle kinetics, n = 3
Description: Kinetics were measured using a Biacore 8K (GE Healthcare, Amersham, UK) with a CM5 chip, which was prepared as follows: 1-ethyl-3-(−3-dimethylaminopropyl) carbodiimide hydrochloride (EDC)/N-hydroxysuccinimide (NHS) was mixed at 1:1 ratio (flow rate, 10 µL/min; contact time, 30 s), and human C5 at 1 µg/mL in pH 4.5 sodium acetate buffer was injected over flow cell one only (flow rate, 10 µL/min; contact time, 60 s). Final immobilisation levels in the range of 2000–3000 RUs were obtained to yield theoretical Rmax values of ~50–60 RU. […] After each injection, the surface was regenerated with two sequential injections of 2 M MgCl2 (flow rate, 30 µL/min; contact time, 30 s). Binding to the reference surface was subtracted, and the data were fitted to a single-site binding model using Biacore evaluation software.
Table 2.6. Validation of molecular interactions by peptide mutagenesis analysis.
Summary of SPR multi-cycle kinetics

[1] = Biacore 8K, HBS-EP pH 7.4, single-site model, mean of n=3, read-out: mean KD
[2] = pH 7.4, read-out: mean koff, Biacore 8K, HBS-EP pH 7.4, mean of n=3
[3] = pH 7.4, read-out: mean kon, Biacore 8K, CM5 chip, HBS-EP pH 7.4, mean of n=3

Substance	Kd [1] [nM]	Kd (replicate n=1, read-out: KD) [nM]	Kd (replicate n=2, read-out: KD) [nM]	Kd (replicate n=3, read-out: KD) [nM]	mean stoich. ratio (Biacore 8K, mean of n=3)	koff [2] [s⁻¹]	kon [3] [M⁻¹ s⁻¹]	fold drop in affinity of alanine mutant	koff (replicate n=1) [s⁻¹]	kon (replicate n=1) [M⁻¹ s⁻¹]	stoich. ratio (replicate n=1)	koff (replicate n=2) [s⁻¹]	kon (replicate n=2) [M⁻¹ s⁻¹]	stoich. ratio (replicate n=2)	koff (replicate n=3) [s⁻¹]	kon (replicate n=3) [M⁻¹ s⁻¹]	stoich. ratio (replicate n=3)
K92 F26A: alanine mutant of K92 (CPEGWSECGVAIYGYACGRWGCGHALNSGPNISP)	18.8	14.9	21.5	19.9													
K92 W21A: alanine mutant of K92 (CPEGWSECGVAIYGYACGRAGCGHFLNSGPNISP)	497	437	411	644													
SVCPDGFDWGYGCAAGSSRFCTAHDWCCYDERADSHTYGFCTGNRVENLYFQ (disulfide 3-28, 13-21, 27-41 (inferred)) [K8 R22A]					0.27	0.000599	54000	twofold decrease in affinity	0.000565	59200	0.29	0.000672	53500	0.24	0.000561	49400	0.27
SVCPDGFDWGYGCAAGSSRFCTRHDWCCYDEAADSHTYGFCTGNRVENLYFQ (disulfide 3-28, 13-21, 27-41 (inferred)) [K8 R31A]					0.75	0.00152	462	715 -fold	0.00182	786	0.36	0.00125	336	0.71	0.00149	263	1.18
